Assays:
β-catenin = assay: Active β-catenin and mature osteoblast gene expression in hMSC cultures with Wnt3a and PEDF peptides; format: cell-based, human
Description: Experiments were conducted to evaluate the effect of Wnt3a and PEDF-derived peptides on β-catenin, a transcriptional regulator of osteoblast differentiation. Cultures incubated in 50 ng/ml Wnt3a alone or in combination with 100 nM PEDF-derived peptides.

hMSCs = assay: Mineralization of hMSCs under continuous Wnt3a (Alizarin red, 21 days); format: cell-based, human
Description: Experiments were conducted to evaluate the effect of PEDF-derived peptides on the mineralization of hMSCs. […] For “late” groups, PEDF 34-mer was added only during the last 8 days of the differentiation protocol. Mineralization was assessed by Alizarin red staining (FIG. 14C).

Row | Sequence | expression of osterix (OSX) (β-catenin; hMSC differentiated for 21 days, 50 ng/ml Wnt3a and 100 nM peptide) | Alizarin red quantitation relative to native PEDF 34-mer (hMSCs; 100 nM peptide with continuous Wnt3a 50 ng/ml, 21 days) | mineralization of hMSCs, final phase addition (hMSCs; added last 8 of 21 days) | osteoblast mineralization, peptide added in the last eight days (hMSCs; added last 8 of 21 days, continuous Wnt3a 50 ng/ml) | levels of active β-catenin (β-catenin; 100 nM peptide with 50 ng/ml Wnt3a)
1 | DPFFKVPVNALAAAVSNFGYDLYRVRSSTSPTTN [SEQ ID NO: 4, mutated K→A PEDF 34-mer peptide] | increases the expression of osterix (OSX) | gain of function properties | stimulates mineralization | comparable to the full-length protein added for 21 days | –
2 | DPFFKVPVNKLAAAVSNFGYDLYRVRSSTSPTTN [PEDF 34-mer, PEDF-derived 34-mer peptide] | – | – | – | – | increases the levels of active β-catenin

From patent US10357549B2, “Pigment epithelium-derived factor (PEDF) and peptide derivatives thereof for use in osteoblast differentiation and bone growth” (Yale University, priority 2014, dated 2019)
